Test results published in patent publication EP2067489B1, “Glyco-molecular imaging method for grade classification of liver fibrosis and its glyco-molecular imaging agent thereof” (Institute of Nuclear Energy Research Atomic Energy Council, priority 2007, dated 2009).

Experiment: Storage stability at room temperature
Format: physicochemical
Settings: stability to air and water-deliquescence

For `O=C(O)CN(CCN1CC(=O)OC(=O)C1)CCN1CC(=O)OC(=O)C1` [DTPA anhydride], the “storage time in room temperature” value was “much unstable and easy to water-deliquescent”.
